Data reported in patent publication US20240067693A1, “POLYPEPTIDES AND USES THEREOF” (MEDIMMUNE LIMITED, priority 2020, published 2024).
Numbered stars: 1 amine (or outer) side, 2 acyl side, 3 side chain; on linkers, the order of the positions; unused ones are H or OH. Bridge positions count the residues as written; N and C are the ends. Square brackets hold non-standard residues; d marks the D form. Side chains are listed from the residue outwards. Peptide text beside a SMILES is read from it. * marks the point of attachment. C18 diacid = O=C(O)CCCCCCCCCCCCCCCCC(=O)*; γGlu = O=C(O)[C@H](CCC(=O)[*:2])N[*:1]; Aib = CC(C)(N)C(=O)O

Assays:
[1] = target: T1, human amylin receptor (calcitonin receptor co-expressed with receptor activity modifying protein, RAMP3) (hAMYR3) (Homo sapiens, UniProt O60896+P30988); assay: cAMP production in 1321N1 cells with stable recombinant expression of human amylin receptor (hAMYR3); assay type: cell-based; details: for Ratio (selectivity hAMYR vs hCTR, ratio of EC50 values at the two receptors): EC50 hCTR / EC50 hAMYR3; for EC50: cAMP, 1321N1 cells, assay buffer with 0.1% BSA, read-out: EC50 (pM) hAMYR3
T1 construct: expressed in transfected cells
T1 sequence (P30988 25-474): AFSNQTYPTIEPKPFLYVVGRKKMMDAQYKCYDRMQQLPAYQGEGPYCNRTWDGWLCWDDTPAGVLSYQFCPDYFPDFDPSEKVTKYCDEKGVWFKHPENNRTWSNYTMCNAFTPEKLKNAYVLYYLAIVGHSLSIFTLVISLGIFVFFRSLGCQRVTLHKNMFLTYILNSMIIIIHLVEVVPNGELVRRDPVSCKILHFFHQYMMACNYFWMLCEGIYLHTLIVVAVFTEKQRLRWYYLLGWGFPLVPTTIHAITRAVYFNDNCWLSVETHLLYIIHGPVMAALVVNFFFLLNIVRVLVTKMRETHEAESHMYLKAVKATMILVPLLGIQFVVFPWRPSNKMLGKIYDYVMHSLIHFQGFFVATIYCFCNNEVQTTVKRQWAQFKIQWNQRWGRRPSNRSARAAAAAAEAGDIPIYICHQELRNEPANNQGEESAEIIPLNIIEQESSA
T1 sequence (O60896 24-148 partner): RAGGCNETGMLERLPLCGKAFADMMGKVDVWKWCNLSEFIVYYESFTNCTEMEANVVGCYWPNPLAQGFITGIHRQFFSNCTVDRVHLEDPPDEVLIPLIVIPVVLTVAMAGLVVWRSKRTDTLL
Procedure, shortened: (§1)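 EC50 values come from 4-parameter logistic fits of HTRF cAMP signal, normalised to maximal calcitonin or amylin effect. Peptides were tested in duplicate for 30 min at RT in IBMX-containing (0.5 mM) BSA/HEPES buffer pH 7.4 on stable 1321N1 (human CTR, AMYR3) or HEK (rat CTR, AMYR3) lines.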

[2] = target: T2, human calcitonin receptor (hCTR) (Homo sapiens, UniProt P30988); assay: cAMP production in 1321N1 cells with stable recombinant expression of human calcitonin receptor (hCTR); assay type: cell-based; details: cAMP, 1321N1 cells, assay buffer with 0.1% BSA; read-out: EC50 (pM) hCTR
T2 construct: expressed in transfected cells
T2 sequence (P30988 25-474): T1 sequence (P30988 25-474)
Procedure, shortened: as §1

Structure (SMILES) | Ratio (selectivity hAMYR vs hCTR, ratio of EC50 values at the two receptors) [1] | EC50 [1] [pM] | EC50 [2] [pM]
CC[C@H](C)[C@H](NC(=O)[C@@H]1CCCN1C(=O)CNC(=O)[C@H](Cc1ccccc1)NC(=O)[C@H](CC(N)=O)NC(=O)[C@H](CCCNC(=N)N)NC(=O)[C@H](CO)NC(=O)[C@H](CO)NC(=O)[C@H](Cc1c[nH]cn1)NC(=O)C(C)(C)NC(=O)[C@H](CC(C)C)NC(=O)[C@H](Cc1ccccc1)NC(=O)[C@H](CC(N)=O)NC(=O)[C@H](C)NC(=O)[C@H](CC(C)C)NC(=O)[C@H](CCCNC(=N)N)NC(=O)[C@H](CCC(N)=O)NC(=O)[C@@H](NC(=O)[C@H](C)NC(=O)[C@@H]1CSSC[C@H](NC(=O)[C@H](CCCCN)NC(=O)[C@@H](N)CCCCNC(=O)CC[C@H](NC(=O)CCCCCCCCCCCCCCCCC(=O)O)C(=O)O)C(=O)N[C@@H](CC(N)=O)C(=O)N[C@@H]([C@@H](C)O)C(=O)N[C@@H](C)C(=O)N[C@@H]([C@@H](C)O)C(=O)N1)[C@@H](C)O)C(=O)N[C@@H](CC(C)C)C(=O)N1CCC[C@H]1C(=O)N1CCC[C@H]1C(=O)N[C@H](C(=O)N[C@@H](CC(N)=O)C(=O)N[C@H](C(=O)NCC(=O)N[C@@H](CO)C(=O)N[C@@H](CC(N)=O)C(=O)N[C@H](C(=O)N[C@@H](Cc1ccc(O)cc1)C(N)=O)[C@@H](C)O)C(C)C)[C@@H](C)O [Peptide 137] (H-K([γGlu-C18 diacid])KCNTATCATQRLANFL[Aib]HSSRNFGPILPPTNVGSNTY-NH2; disulfide 3-8; N-terminus assumed) | 6.3 | 238 | 1500
CC[C@H](C)[C@H](NC(=O)[C@@H]1CCCN1C(=O)CNC(=O)[C@H](Cc1ccccc1)NC(=O)[C@H](CC(N)=O)NC(=O)[C@@H]1CCCN1C(=O)[C@H](CO)NC(=O)[C@H](CO)NC(=O)[C@H](Cc1c[nH]cn1)NC(=O)C(C)(C)NC(=O)[C@H](CC(C)C)NC(=O)[C@H](Cc1ccccc1)NC(=O)[C@H](CC(N)=O)NC(=O)[C@H](C)NC(=O)[C@H](CC(C)C)NC(=O)[C@H](CCCNC(=N)N)NC(=O)[C@H](CCC(N)=O)NC(=O)[C@@H](NC(=O)[C@H](C)NC(=O)[C@@H]1CSSC[C@H](NC(=O)[C@H](CCCCN)NC(=O)[C@@H](N)CCCCNC(=O)CC[C@H](NC(=O)CCCCCCCCCCCCCCCCC(=O)O)C(=O)O)C(=O)N[C@@H](CC(N)=O)C(=O)N[C@@H]([C@@H](C)O)C(=O)N[C@@H](C)C(=O)N[C@@H]([C@@H](C)O)C(=O)N1)[C@@H](C)O)C(=O)N[C@@H](CC(C)C)C(=O)N1CCC[C@H]1C(=O)N1CCC[C@H]1C(=O)N[C@H](C(=O)N[C@@H](CCC(=O)O)C(=O)N[C@H](C(=O)NCC(=O)N[C@@H](CO)C(=O)N[C@@H](CC(N)=O)C(=O)N[C@H](C(=O)N[C@@H](Cc1ccc(O)cc1)C(N)=O)[C@@H](C)O)C(C)C)[C@@H](C)O [Peptide 138] (H-K([γGlu-C18 diacid])KCNTATCATQRLANFL[Aib]HSSPNFGPILPPTEVGSNTY-NH2; disulfide 3-8) | 4.1 | 612 | 2510
